Reference: patent US4398937A, “Selective algaecides for control of cyanochloronta” (The University of Southern Mississippi, priority 1981, dated 1983)

Assays:
[1] = Field Experiment I, total organism dry weight; format: in vivo; conditions: 10 ppm
Method: (§1) 1, 1980, to Mar. 19, 1981.
(§2) On July 30, 1980, most ponds had numbers of blue-green algae exceeding 2×10^6 cells/liter. These algae were predominantly Oscillatoria,Microcystis and Anacystis with smaller numbers of Nostoc, Anabaena and Lyngbya. The experimental pond had 1.2×10^6 cells/liter composed mainly of Microcystis sp. Large numbers of copepods and rotifers were present. On July 30, the pond was treated with 10 ppm potassium ricinoleate by distributing a 30% aqueous solution evenly through the water column by pump from a small boat. […] This is further substantiated by the dry weights and chlorophyll a levels.

[2] = test system: blue-green algae (Microcystis and Oscillatoria); assay: Sewage treatment test 2, dense bloom of blue-green algae; conditions: ten days after treatment
Description: Ten days after treatment aeration was stopped and cell debris was allowed to settle.

Rhizochrysis = assay: Sewage treatment test 1, Rhizochrysis; conditions: six days after treatment
Method: (§3) Two experiments were performed on sewage to further illustrate the utility of these algaecides. In the first experiment, sewage containing mostly green algae was treated with relatively high concentrations of potassium ricinoleate.

[3] = test system: sewage containing mostly green algae; assay: Sewage treatment test 1, mostly green algae; conditions: for cells/liter: after six days of aeration
Method: as §3

green algae [4] = assay: Field Experiment II, catfish pond, green algae; format: in vivo; conditions: 2 ppm
catfish fingerlings = assay: Toxicity to catfish fingerlings in aquaria; format: in vivo
Method: For any algaecide to be useful in aquaculture, it must be without harmful effects on fish populations in ponds to be treated. Experiments to determine the effects of potassium ricinoleate on fish were performed in two 250 gallon aquaria using various concentrations of the algaecide. Batches of 25 live 5 in. catfish fingerlings were treated with 5, 10, 15, 20, 30, 35 and 100 ppm algaecide and observed for 48 hours.

blue-green algae [5] = assay: Field Experiment III, pond, blue-green algae; format: in vivo, blue-green algae (Oscillatoria and Microcystis); conditions: 2 ppm on 6/9/81
Method: (§4) In Field Experiment III, a small two acre pond was monitored for a complete year for plankton organisms as before. Oscillatoria and Microcystis were usually the prevalent blue-green algae. On 6/9/81 the pond was experiencing a bloom consisting completely of Oscillatoria. Channel catfish from the ponds had the characteristic earthy, musty taste and odor of 4 and 4 respectively on the 0 to 5 scale. The pond was treated on this date with 2 ppm potassium ricinoleate, one of the selective algaecides, as before.

[6] = Field Experiment II, taste and odor of water; format: in vivo; conditions: 2 ppm on 5/26/81
blue-green algae [7] = assay: Field Experiment II, catfish pond, blue-green algae; format: in vivo, blue-green algae (Oscillatoria and Microcystis); conditions: 2 ppm
Cylindrospermum = assay: Selective effect on algae in test tubes (Table V), Cylindrospermum; format: cell-based; conditions: for cells/ml: 13 days after innoculation, average of 3 samples
Method: (§5) Another laboratory experiment was run to further substantiate the selective effect of one of the algaecides, potassium ricinoleate. Two species of blue-green algae, Lyngbya and Cylindrospermum, and three species of green algae, Chlorella, Haematococcus and Stigeoclonium and Tribonema, a yellow-green alga of the division Chrysophycophyta, were treated as follows: Twenty ml test tubes of sterile BBM culture solution were innoculated with each alga. All species of algae were evaluated with three groups, control, 2.5 ppm algaecide and 7.5 ppm algaecide. Each group was run with triplicate samples.
(§6) Controls were counted 6 days after innoculation, algaecide was added to the treatment groups seven days after innoculation and all test tubes were counted thirteen days after innoculation. The results are shown in Table V. After seven days, there was a 31% reduction in the Lyngbya cultures at 2.5 ppm algaecide and a 40% reduction at 7.5 ppm. After seven days, there was a 60% reduction in Cylindrospermum cultures at 2.5 ppm algaecide and a 72% reduction at 7.5 ppm. […] After thirteen days, there was a 55% reduction in numbers at both 2.5 ppm and 7.5 ppm. After twenty days there was a 27% reduction at both concentrations. […] They are, like blue-green algae, often associated with taste and odor problems.

Haematococcus = assay: Selective effect on algae in test tubes (Table V), Haematococcus; format: cell-based; conditions: for cells/ml: 13 days after innoculation, average of 3 samples
Method: as §5, §6

green algae [8] = assay: Field Experiment III, pond, green algae; format: in vivo; conditions: 2 ppm on 6/9/81
Method: as §4

green algae [9] = assay: Field Experiment I, catfish pond, green algae and other phytoplankton; format: in vivo; conditions: 10 ppm
Method: as §1, §2

Chlorophyll a = assay: Field Experiment I, chlorophyll a; format: in vivo; conditions: 10 ppm
Method: as §1, §2

[10] = 7/31 post-treatment (treated July 30, 1980)
[11] = 11/21 post-treatment (normal winter reduction)
[12] = 5/26/81 B post-treat, 4 p.m., Deep, prevalent Mic
[13] = 5/26/81 C post-treat, 4 p.m., Shallow, prevalent Ped
[14] = 5/27/81 D, 9:40 p.m., Deep, prevalent Ped
[15] = 5/27/81 E, 9:40 p.m., Shallow, prevalent Ped
[16] = 5/28/81 F, 7 a.m., prevalent Ped
[17] = 5/28/81 G, 11 a.m., prevalent Ped
[18] = scale 0 to 5 (5 worst, 0 undetectable), 6/1/81
[19] = 168 h, read-out: reduction in cultures

CCCCCC[C@@H](O)C/C=C\CCCCCCCC(=O)[O-].[K+]
Dry Wgts [1, 10]: 2.19 Gm/Liter
Dry Wgts ([1]; 8/1 post-treatment): 4.45 Gm/Liter
Dry Wgts ([1]; 8/6 post-treatment): 17.90 Gm/Liter
Dry Wgts ([1]; 8/19 post-treatment): 5.34 Gm/Liter
Dry Wgts ([1]; 9/6 post-treatment): 20.69 Gm/Liter
Dry Wgts ([1]; 9/23 post-treatment): 9.06 Gm/Liter
Dry Wgts [1, 11]: 1.03 Gm/Liter
Dry Wgts ([1]; 12/14 post-treatment): 4.84 Gm/Liter
cells/liter ([2]; 2.5 ppm): 8.3 × 10^5 cells/liter
cells/liter ([2]; 5.0 ppm): 7.9 × 10^5 cells/liter
cells/liter ([2]; 10.0 ppm): 6.6 × 10^5 cells/liter
cells/liter ([2]; 15.0 ppm): 4.4 × 10^5 cells/liter
state of enumerated suspended cells [2]: appeared dead
presence of Rhizochrysis (Rhizochrysis): completely absent
taste or odor of cooked fish (juvenile channel catfish; 10 ppm, samples February through June, 1981): no taste or odor problems
health of juvenile catfish (juvenile channel catfish; in vivo): fed and otherwise appeared healthy
cells/liter ([3]; 18.4 ppm): 1.91 × 10^5 cells/liter
cells/liter ([3]; 46.0 ppm): 1.33 × 10^5 cells/liter
cells/liter ([3]; 92.0 ppm): 2.30 × 10^5 cells/liter
cells/liter ([3]; 184.1 ppm): 2.72 × 10^5 cells/liter
effect on green algae ([3]; six days after treatment): somewhat stimulated
Cells/liter green algae (green algae [4]; [12]): 3.2 × 10^5 Cells/liter
Cells/liter green algae (green algae [4]; [13]): 2.0 × 10^5 Cells/liter
Cells/liter green algae (green algae [4]; [14]): 2.6 × 10^5 Cells/liter
Cells/liter green algae (green algae [4]; [15]): 1.09 × 10^5 Cells/liter
Cells/liter green algae (green algae [4]; [16]): 1.3 × 10^5 Cells/liter
Cells/liter green algae (green algae [4]; [17]): 1.1 × 10^5 Cells/liter
green algae after treatment (green algae [4]; through June, 1981): remained unchanged
fish survival (catfish fingerlings; 35 ppm and lower, observed for 48 hours): All fish survived
fish mortality (catfish fingerlings; 100 ppm, at 12 hours): All fish had died
Cells/liter bluegreen algae (blue-green algae [5]; 6/10/81, prevalent Osc, Mic): 2.8 × 10^6 Cells/liter
Cells/liter bluegreen algae (blue-green algae [5]; 6/12/81, prevalent Osc): 1.3 × 10^6 Cells/liter
Cells/liter bluegreen algae (blue-green algae [5]; 6/22/81, prevalent Ped): 1.2 × 10^4 Cells/liter
predominant alga after treatment (blue-green algae [5]; June 22): Pediastrum with isolated fragments of Oscillatoria filaments
Water Odor [6, 18]: 0
Water Taste [6, 18]: 1
Water Odor ([6]; scale 0 to 5, 6/5/81): 0
Water Taste ([6]; scale 0 to 5, 6/5/81): 1
Water Odor ([6]; scale 0 to 5, 6/12/81): 0
Water Taste ([6]; scale 0 to 5, 6/12/81): 0
Water Odor ([6]; scale 0 to 5, 6/15/81): 0
Water Taste ([6]; scale 0 to 5, 6/15/81): 0
Cells/liter bluegreen algae (blue-green algae [7]; [12]): 4.2 × 10^5 Cells/liter
Cells/liter bluegreen algae (blue-green algae [7]; [13]): 0 Cells/liter
Cells/liter bluegreen algae (blue-green algae [7]; [14]): 1.18 × 10^4 Cells/liter
Cells/liter bluegreen algae (blue-green algae [7]; [15]): 0 Cells/liter
Cells/liter bluegreen algae (blue-green algae [7]; [16]): 5.9 × 10^3 Cells/liter
Cells/liter bluegreen algae (blue-green algae [7]; [17]): 0 Cells/liter
blue-green algae after treatment (blue-green algae [7]; after two days): essentially no blue-green algae present
cells/ml (Cylindrospermum; 2.5 ppm): 2500 cells/ml
cells/ml (Cylindrospermum; 7.5 ppm): 1770 cells/ml
inhibition of growth at 2.5 ppm (Cylindrospermum; [19]): 60%
inhibition of growth at 7.5 ppm (Cylindrospermum; [19]): 72%
effect (Haematococcus; 2.5 and 7.5 ppm, after seven days): stimulated
cells/ml (Haematococcus; 2.5 ppm): 23000 cells/ml
cells/ml (Haematococcus; 7.5 ppm): 52000 cells/ml
Cells/liter green algae (green algae [8]; 6/10/81): 3.0 × 10^3 Cells/liter
Cells/liter green algae (green algae [8]; 6/12/81): 1.4 × 10^3 Cells/liter
Cells/liter green algae (green algae [8]; 6/22/81): 3.5 × 10^5 Cells/liter
Cells/Liter of green algae (green algae [9]; [10]): 6.2 × 10^4 Cells/Liter
Cells/Liter of green algae (green algae [9]; 8/1 post-treatment): 5.0 × 10^4 Cells/Liter
Cells/Liter of green algae (green algae [9]; 8/6 post-treatment): 2.1 × 10^4 Cells/Liter
Cells/Liter of green algae (green algae [9]; 8/19 post-treatment): 0 Cells/Liter
Cells/Liter of green algae (green algae [9]; 9/6 post-treatment): 1.7 × 10^4 Cells/Liter
Cells/Liter of green algae (green algae [9]; 9/23 post-treatment): 4.5 × 10^5 Cells/Liter
Cells/Liter of green algae (green algae [9]; [11]): 2.5 × 10^3 Cells/Liter
Cells/Liter of green algae (green algae [9]; 12/14 post-treatment): 0 Cells/Liter
numbers of other phytoplankton (green algae [9]; seven days after treatment): essentially unchanged or increased in numbers
Chlorophyll a (Chlorophyll a; [10]): .000 absorbance at 663 nm
Chlorophyll a (Chlorophyll a; 8/1 post-treatment): .064 absorbance at 663 nm
Chlorophyll a (Chlorophyll a; 8/6 post-treatment): .000 absorbance at 663 nm
Chlorophyll a (Chlorophyll a; 8/19 post-treatment): .002 absorbance at 663 nm
Chlorophyll a (Chlorophyll a; 9/6 post-treatment): .240 absorbance at 663 nm
